Test system: WEHI-3B cells, a murine monomyelocytic cell line
Conditions: 1.0 million WEHI-3B cells i.p.; 1.9 mg AD-32/kg/day i.p. for five days
Procedure: Balb/C mice were injected intraperitonally (i.p.) with 1.0 million WEHI-3B cells, a murine monomyelocytic cell line. […] The AD-32 was administered i.p. dissolved in a mixture of ethanol and castor oil.

CCCCC(=O)OCC(=O)C1(O)Cc2c(O)c3c(c(O)c2C(OC2CC(NC(=O)C(F)(F)F)C(O)C(C)O2)C1)C(=O)c1c(OC)cccc1C3=O (stereo not shown) [AD-32, N-trifluoroacetyladriamycin-14-valerate]
ILS, Increased Life Span: 2%

— US4868158A, “Method for the production of a macromolecular carrier loaded with a biologically active substance” (Oncholab AB, priority 1985, dated 1989)
